Experimental data reported in PMC5884943, “Discovery of Novel Inhibitors of Indoleamine 2,3-Dioxygenase 1 Through Structure-Based Virtual Screening” (Frontiers in Pharmacology, 2018).

Molecular target: T1, human IDO1 protein (Homo sapiens, UniProt P14902)
T1 construct: purchased ChemPartner Lot; No. 20160706
Test: Enzymatic IDO1 assay (Absorbance 321 assay)
Type: biochemical
Details: for Inhibition ratio (%) @ 20 μM / inhibition at 20 µM: 20 μM compound; for Avg_Inh (%) @ 50uM: average inhibition, Table S2; for Background (%): background signal of the compound in the absorbance assay; for inhibition at 20 µM: read-out: Inhibition ratio (%) @ 20 μM
Method: The standard assay mixture contained modified potassium phosphate buffer at pH 6.5, 100 μM L-tryptophan (Sigma, Cat. […] No. […]). […] Then the assay plate was read at OD321 kinetically in Spectramax. […] Fit the data in […]5.0 software to obtain IC50-values using Equation (2): (2) Y=Bottom+Top-Bottom/1+10^(logIC50-X)×HillSlope where Y stands for inhibition percentage and X stands for compound concentration. All determinations were carried out in duplicate.

T1 sequence (P14902 whole entry): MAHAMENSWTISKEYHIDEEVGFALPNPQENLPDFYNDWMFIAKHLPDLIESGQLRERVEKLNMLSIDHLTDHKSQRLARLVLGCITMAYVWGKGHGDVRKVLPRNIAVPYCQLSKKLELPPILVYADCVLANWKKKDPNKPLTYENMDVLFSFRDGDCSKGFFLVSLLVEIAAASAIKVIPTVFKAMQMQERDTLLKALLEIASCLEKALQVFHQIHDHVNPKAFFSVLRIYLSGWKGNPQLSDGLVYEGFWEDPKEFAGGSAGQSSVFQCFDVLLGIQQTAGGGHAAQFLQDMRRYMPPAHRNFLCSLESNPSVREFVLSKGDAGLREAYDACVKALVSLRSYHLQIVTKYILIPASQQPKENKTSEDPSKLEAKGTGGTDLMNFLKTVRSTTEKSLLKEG

Row | SMILES | Avg_Inh (%) @ 50uM [%] | Background (%) | other results
1 | Nc1ccc(Br)cc1C(O)c1ccc(Cl)cc1 (stereo not drawn) [DC-I032] | 63.02 | 33.85 | Inhibition ratio (%) @ 20 μM: 25.26%
2 | O=C(COC(=O)c1ccc2ccccc2n1)c1ccc(Cl)cc1 [DC-I046] | 63.18 | 44.38 | Inhibition ratio (%) @ 20 μM: 28.10%
3 | Cc1cc(-c2cccs2)c2c(N)c(C(=O)NCCc3c[nH]c4ccccc34)sc2n1 [DC-I079] | 85.60 | 60.62 | Inhibition ratio (%) @ 20 μM: 36.42%
4 | O=C(CSc1nnc(COc2ccc(Cl)cc2Cl)o1)Nc1ccccn1 [DC-I090] | 95.14 | 34.84 | Inhibition ratio (%) @ 20 μM: 41.43%
5 | Cc1cccc(-c2nnc(SCC(=O)Nc3c(C)cc(C)cc3C)o2)c1 [DC-I102] | 80.83 | 43.32 | Inhibition ratio (%) @ 20 μM: 15.17%
6 | CC(=O)c1ccc(N2COc3ccc4ccccc4c3C2)cc1 [DC-I02801] | – | – | inhibition at 20 µM: 17.8%
7 | CC(=O)Nc1cccc2ccc3c(c12)CN(Cc1ccccc1)CO3 [DC-I02803] | – | – | inhibition at 20 µM: -11.2%; IDO1 inhibitory activity (in words) (SAR discussion): inactive
8 | O=C(NC(=S)Nc1c(O)ccc2ccccc12)c1ccccc1I [DC-I02807] | – | – | inhibition at 20 µM: 59.6%; IC50 (IDO1 enzymatic level): 25 µM
9 | COc1ccc(C(=O)NC(=S)Nc2cccc3cc(O)ccc23)cc1OC [DC-I02809] | – | – | inhibition at 20 µM: 17.6%
10 | O=C(NC(=S)Nc1cccc2cc(O)ccc12)c1ccco1 [DC-I02810] | – | – | inhibition at 20 µM: 15.6%
11 | CCCCOc1cccc(-c2c(O)ccc3ccccc23)c1 [DC-I02811] | – | – | inhibition at 20 µM: 8.19%
12 | CC(=O)N(C)c1ccc(-c2c(O)ccc3ccccc23)cc1 [DC-I02812] | – | – | inhibition at 20 µM: 4.69%
13 | Oc1ccc2ccccc2c1Sc1nnnn1-c1ccccc1 [DC-I02813] | – | – | inhibition at 20 µM: 15.6%
14 | Nc1ncnc2sc3c(c12)CCC3 [DCI-001] | -9.13 | 42.64 | –
15 | c1ccc2cc(OCc3nc4ccccc4s3)ccc2c1 [DCI-002] | 81.62 | 44.08 | –
16 | O=C(OCc1ccc(Cl)cc1)c1cc2ccccc2cc1O [DCI-003] | 35.38 | 51.94 | –
17 | Clc1ccc2[nH]cc(-c3nnnn3-c3ccccc3)c2c1 [DCI-004] | 49.29 | 38.90 | –
18 | COc1ccc(CNC(=O)COc2ccc3ccccc3c2)cc1 [DCI-005] | 11.86 | 36.51 | –
19 | CC(=O)Nc1ccc(NC(=O)C2CC(=O)N(c3ccccc3)C2)cc1 (stereo not drawn) [DCI-006] | 2.62 | 34.97 | –
20 | N#Cc1c(SCC(N)=O)nc2c(c1-c1cccnc1)CCC2 [DCI-007] | -0.85 | 44.80 | –
21 | COc1cccc(-c2[nH]nc3c2C(c2ccccc2F)C(C#N)=C(N)O3)c1 (stereo not drawn) [DCI-008] | 22.90 | 42.25 | –
22 | Nc1ccccc1/C=C1/C(=O)Nc2ccccc21 [DCI-009] | 12.24 | 52.98 | –

Row | SMILES | Avg_Inh (%) @ 50uM [%] | Background (%) | other results
23 | O=c1cnc2ccccc2n1Cc1cccc(Cl)c1 [DCI-010] | 18.26 | 46.13 | –
24 | COc1ccc(/C=C\c2nccc3ccccc23)cc1OC [DCI-011] | 2.22 | 51.96 | –
25 | Cc1cc(=O)oc2cc(OCCSc3ccccc3)ccc12 [DCI-012] | 42.86 | 56.72 | –
26 | Cc1ccc(C)c(C(=O)CSc2ncnc3nc[nH]c23)c1 [DCI-013] | 4.76 | 38.66 | –
27 | Cc1ccc(C(C)C)cc1C(=O)CC1(O)C(=O)N(C)c2ccc(Br)cc21 (stereo not drawn) [DCI-014] | 28.34 | 41.98 | –
28 | O=C(NCC1CCCO1)c1ccc(COc2ccc3ccccc3c2)cc1 (stereo not drawn) [DCI-015] | 20.11 | 40.12 | –
29 | COc1ccc(C(N)=O)cc1NS(=O)(=O)c1cccc2cccnc12 [DCI-016] | 5.08 | 38.92 | –
30 | Cc1sc2ncnc(SCC(=O)Nc3ccc(S(N)(=O)=O)cc3)c2c1C [DCI-017] | 37.65 | 48.33 | –
31 | CC(O)CNCc1ccc(OCc2ccc3c(c2)OCCO3)cc1 (stereo not drawn) [DCI-018] | -2.06 | 34.42 | –
32 | c1csc(CNCCCc2nc3ccccc3[nH]2)c1 [DCI-019] | -8.21 | 33.33 | –
33 | Cc1cccc(C)c1N1CC(C(=O)Nc2cccc3ccccc23)CC1=O (stereo not drawn) [DCI-020] | 10.24 | 35.53 | –
34 | CC1CCCN(C(C)CS(=O)(=O)c2ccc3ccccc3c2)C1 (stereo not drawn) [DCI-021] | -2.20 | 37.17 | –
35 | COc1cc2c(cc1OC)C(c1ccc(Br)cc1)OCC2 (stereo not drawn) [DCI-022] | 34.49 | 44.32 | –
36 | Cc1ccc(/C=N/Nc2nc3ccccc3[nH]c2=O)cc1 [DCI-023] | -2.26 | 53.84 | –
37 | CC(C)c1ccc(O)c(C(=O)c2cnn(-c3ccccc3)c2)c1 [DCI-024] | 45.39 | 56.24 | –
38 | O=c1c(-c2nc3ccccc3[nH]2)coc2cc(O)ccc12 [DCI-025] | 9.07 | 66.83 | –
39 | COc1ccc2ccccc2c1/C=C(\C#N)c1nc2ccccc2[nH]1 [DCI-026] | 98.78 | 66.01 | –
40 | Cc1sc2nn[nH]c(=O)c2c1C [DCI-027] | 43.67 | 56.25 | –
41 | COc1cc2sc3c(=O)[nH]c4ccccc4c3c2cc1OC [DCI-029] | -6.51 | 40.56 | –
42 | CCCC1CCc2c(c3ccccc3[nH]c2=O)O1 (stereo not drawn) [DCI-030] | 11.57 | 45.02 | –
43 | O=[N+]([O-])C1C(O)c2ccccc2OC1c1ccccc1 (stereo not drawn) [DCI-031] | 13.99 | 39.14 | –
44 | OC1Cc2ccccc2Sc2c(Cl)cccc21 (stereo not drawn) [DCI-033] | 45.38 | 34.53 | –
